In ChEMBL document CHEMBL1201862, “PubChem BioAssay data set” (2004):
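Where inhibition never reached the appropriate level, the endpoint shown equals the highest concentration tested. Otherwise, values were interpolated linearly from a five-concentration, 48-hour dose response in 96-well plates. GI50 = concentration required for 50% inhibition of growth.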 Activity calls are given as the source filed them. No stated cut-off is given here; in the data, active = GI50 up to about 1.1 µM and inactive = higher.

What was measured:
Assay in all cases: growth of human tumour cells (NCI), 48 h
[1] = system: A498
[2] = system: ACHN
[3] = system: CAKI-1
[4] = system: CCRF-CEM
[5] = system: EKVX
[6] = system: HL-60
[7] = system: HT-29
[8] = system: Hs-578T
[9] = system: IGROV-1
[10] = system: K562
[11] = system: LOX IMVI
[12] = system: MCF7
[13] = system: NCI/ADR-RES
[14] = system: OVCAR-8
[15] = system: RXF 393
[16] = system: SF-539
[17] = system: SK-MEL-28
[18] = system: UO-31

Compound: O=C(O)c1ccccc1.[Ag]
- GI50 [1]: 19.2 µM (inactive)
- GI50 [2]: 6.47 µM (inactive)
- GI50 [3]: 5.5 µM (inactive)
- GI50 [4]: 1.99 µM (inactive)
- GI50 [5]: 26.6 µM (inactive)
- GI50 [6]: 3.98 µM (inactive)
- GI50 [7]: 20 µM (inactive)
- GI50 [8]: 28.2 µM (inactive)
- GI50 [9]: 15.7 µM (inactive)
- GI50 [10]: 3.2 µM (inactive)
- GI50 [11]: 11.1 µM (inactive)
- GI50 [12]: 13.3 µM (inactive)
- GI50 [13]: 34.6 µM (inactive)
- GI50 [14]: 28.1 µM (inactive)
- GI50 [15]: 18.2 µM (inactive)
- GI50 [16]: 21.3 µM (inactive)
- GI50 [17]: 16.9 µM (inactive)
- GI50 [18]: 2.13 µM (inactive)

Compound: CC(=O)Nc1cc2cc(N)ccc2oc1=O
- GI50 [1]: > 100 µM (inactive)
- GI50 [2]: > 100 µM (inactive)
- GI50 [3]: > 100 µM (inactive)
- GI50 [4]: > 100 µM (inactive)
- GI50 [5]: > 100 µM (inactive)
- GI50 [6]: > 100 µM (inactive)
- GI50 [7]: > 100 µM (inactive)
- GI50 [8]: > 100 µM (inactive)
- GI50 [9]: > 100 µM (inactive)
- GI50 [10]: > 100 µM (inactive)
- GI50 [11]: > 100 µM (inactive)
- GI50 [12]: > 100 µM (inactive)
- GI50 [13]: > 100 µM (inactive)
- GI50 [14]: > 100 µM (inactive)
- GI50 [15]: 0.0411 µM (active)
- GI50 [16]: > 100 µM (inactive)
- GI50 [17]: > 100 µM (inactive)
- GI50 [18]: > 100 µM (inactive)

Compound: O=C(O)c1cc2c(cc1CC(Cc1ccc3c(c1)CCCC3)C(=O)O)CCCC2 (centres undefined)
- GI50 [1]: > 100 µM (inactive)
- GI50 [2]: 56.5 µM (inactive)
- GI50 [3]: > 100 µM (inactive)
- GI50 [4]: 67.5 µM (inactive)
- GI50 [5]: 56 µM (inactive)
- GI50 [6]: 99.8 µM (inactive)
- GI50 [7]: > 100 µM (inactive)
- GI50 [8]: 90.6 µM (inactive)
- GI50 [9]: > 100 µM (inactive)
- GI50 [10]: > 100 µM (inactive)
- GI50 [11]: 94.4 µM (inactive)
- GI50 [12]: 38.2 µM (inactive)
- GI50 [13]: 32.8 µM (inactive)
- GI50 [14]: > 100 µM (inactive)
- GI50 [15]: 41.5 µM (inactive)
- GI50 [16]: 34.4 µM (inactive)
- GI50 [17]: > 100 µM (inactive)
- GI50 [18]: > 100 µM (inactive)

Compound: O=CNC(Cc1c[nH]cn1)C(=O)O (centres undefined)
- GI50 [1]: > 100 µM (inactive)
- GI50 [2]: > 100 µM (inactive)
- GI50 [3]: > 100 µM (inactive)
- GI50 [4]: > 100 µM (inactive)
- GI50 [5]: > 100 µM (inactive)
- GI50 [6]: > 100 µM (inactive)
- GI50 [7]: > 100 µM (inactive)
- GI50 [8]: > 100 µM (inactive)
- GI50 [9]: > 100 µM (inactive)
- GI50 [10]: > 100 µM (inactive)
- GI50 [11]: > 100 µM (inactive)
- GI50 [12]: > 100 µM (inactive)
- GI50 [13]: > 100 µM (inactive)
- GI50 [14]: > 100 µM (inactive)
- GI50 [15]: > 100 µM (inactive)
- GI50 [16]: > 100 µM (inactive)
- GI50 [17]: > 100 µM (inactive)
- GI50 [18]: > 100 µM (inactive)

Compound: NN
- GI50 [1]: 317 µM (inactive)
- GI50 [2]: 593 µM (inactive)
- GI50 [3]: 445 µM (inactive)
- GI50 [4]: 72.3 µM (inactive)
- GI50 [5]: 883 µM (inactive)
- GI50 [6]: 205 µM (inactive)
- GI50 [7]: 234 µM (inactive)
- GI50 [8]: 809 µM (inactive)
- GI50 [9]: 357 µM (inactive)
- GI50 [10]: 88.7 µM (inactive)
- GI50 [11]: 86.3 µM (inactive)
- GI50 [12]: 179 µM (inactive)
- GI50 [13]: 740 µM (inactive)
- GI50 [14]: 406 µM (inactive)
- GI50 [15]: 453 µM (inactive)
- GI50 [16]: 582 µM (inactive)
- GI50 [17]: 585 µM (inactive)
- GI50 [18]: 434 µM (inactive)

Compound: CCCCCc1cc2c(cc1O)CC[C@@H]1[C@@H]2CC[C@]2(C)[C@@H](O)CC[C@@H]12
- GI50 [1]: 21.4 µM (inactive)
- GI50 [2]: 14.1 µM (inactive)
- GI50 [3]: 21.5 µM (inactive)
- GI50 [4]: 35.3 µM (inactive)
- GI50 [5]: 17.9 µM (inactive)
- GI50 [6]: 21.3 µM (inactive)
- GI50 [7]: 20 µM (inactive)
- GI50 [8]: 19.8 µM (inactive)
- GI50 [9]: 18.5 µM (inactive)
- GI50 [10]: 16.7 µM (inactive)
- GI50 [11]: 18.2 µM (inactive)
- GI50 [12]: 16.4 µM (inactive)
- GI50 [13]: 18.9 µM (inactive)
- GI50 [14]: 20.1 µM (inactive)
- GI50 [15]: 19.5 µM (inactive)
- GI50 [16]: 23.8 µM (inactive)
- GI50 [17]: 16.2 µM (inactive)
- GI50 [18]: 13.9 µM (inactive)

Compound: CC1=NN(c2nc(N)nc(CC#N)n2)C(C)(C)C1
- GI50 [1]: > 100 µM (inactive)
- GI50 [2]: > 100 µM (inactive)
- GI50 [3]: > 100 µM (inactive)
- GI50 [4]: > 100 µM (inactive)
- GI50 [5]: > 100 µM (inactive)
- GI50 [6]: > 100 µM (inactive)
- GI50 [7]: > 100 µM (inactive)
- GI50 [8]: > 100 µM (inactive)
- GI50 [9]: > 100 µM (inactive)
- GI50 [10]: > 100 µM (inactive)
- GI50 [11]: > 100 µM (inactive)
- GI50 [12]: > 100 µM (inactive)
- GI50 [13]: > 100 µM (inactive)
- GI50 [14]: > 100 µM (inactive)
- GI50 [15]: > 100 µM (inactive)
- GI50 [16]: > 100 µM (inactive)
- GI50 [17]: > 100 µM (inactive)
- GI50 [18]: > 100 µM (inactive)

Compound: Nc1ccn(CC(O)c2cc3ccccc3[nH]2)c(=O)n1 (centres undefined)
- GI50 [1]: > 100 µM (inactive)
- GI50 [2]: > 100 µM (inactive)
- GI50 [3]: > 100 µM (inactive)
- GI50 [4]: > 100 µM (inactive)
- GI50 [5]: > 100 µM (inactive)
- GI50 [6]: > 100 µM (inactive)
- GI50 [7]: > 100 µM (inactive)
- GI50 [8]: > 100 µM (inactive)
- GI50 [9]: > 100 µM (inactive)
- GI50 [10]: > 100 µM (inactive)
- GI50 [11]: > 100 µM (inactive)
- GI50 [12]: > 100 µM (inactive)
- GI50 [13]: > 100 µM (inactive)
- GI50 [14]: > 100 µM (inactive)
- GI50 [15]: > 100 µM (inactive)
- GI50 [16]: > 100 µM (inactive)
- GI50 [17]: > 100 µM (inactive)
- GI50 [18]: > 100 µM (inactive)
